Key:
[1] = system: A549 tumorspheroids; test: 3D tumorspheroid growth (CellTiter-Glo 3D); assay type: cell-based
Protocol: (§1) A549 and NCI-H460 cell lines were placed in 96-well ultra-low attachment (ULA) plates at 7,000 and 1500 cells/well, and centrifuged at 1000 rpm for 10 minutes. Then, they were cultured in Roswell Park Memorial Institute (RPMI) 1640 medium mixed with 0.5% Matrigel, 10% Fetal Bovine Serum (FBS), and 1× penicillin-streptomycin for 2 days. They were treated with IHT, and the degree of cell growth was measured with CellTiter-Glo 3D (Promega, Madison, WI, USA) reagent after 72 hours, and 2D cultured cells were exposed to IHT at the indicated concentration for 48 hours, and then the cell growth was measured with CellTiter-Glo reagent. The average effective dose ED50 of IHT was determined by analyzing the dose-response curve with GraphPad Prism, and the results are shown in FIG. 2. The scale bar was 100 μm, and all data were expressed as mean±standard deviation.
(§2) After IHT was treated onto the 3D tumorspheroid of NCI-H460, or siNR4A1 and IHT were treated in combination on the 3D tumorspheroid of A549, the growth inhibition and cell death induction of tumorspheroids were observed. Negative control (siNC) or siNR4AT-transfected A549 and non-transfected NCI-H460 tumorspheroids were treated with IHT at each concentration, and after 48 and 72 hours, the cell growth was measured using CellTiter-Glo 3D cell viability assay kit (Promega). A549 cells were transfected with […] siRNA using Lipofectamine 2000 (Invitrogen), and siNR4A1 of SEQ ID NO: 1 (5′-GAGCUAUUCCAUGCCUACG-3′) and SEQ ID NO: 2 (5′-GGAUACUGGAUACACCCGU-3′) were mixed and used.

[2] = system: NCI-H460 tumorspheroids; test: 3D tumorspheroid growth (CellTiter-Glo 3D); assay type: cell-based
Protocol: as §1, §2

[3] = system: A549 cell line; test: 2D culture cell growth (CellTiter-Glo); assay type: cell-based; conditions: Homo sapiens; 2D culture A549, 48 hours; read-out: ED50, cell proliferation
Protocol: as §1

[4] = system: NCI-H460 cell line; test: 2D culture cell growth (CellTiter-Glo); assay type: cell-based; conditions: Homo sapiens; 2D culture NCI-H460, 48 hours; read-out: ED50, cell proliferation
Protocol: as §1

[5] = system: p21 protein; test: Western blot for p21 protein in 2D-cultured NCI-H460; assay type: cell-based; conditions: NCI-H460 2D, 48 hours, low concentrations below the ED50
Protocol: NCI-H460 cell line was cultured in 2D, treated with IHT at the indicated concentration for 48 hours, and then Western blots were performed to measure changes in p21 protein.
(§3) The cells were dissolved in a RIPA (radio immunoprecipitation) buffer containing protease inhibitors, phosphatase inhibitors, PMSF (phenylmethylsulfonyl fluoride), and DTT (dithiothreitol), and protein concentration was quantified with a micro BCA test kit. Equal amounts of protein was added to a polyacrylamide gel containing SDS (Sodium dodecyl sulphate), isolated by electrophoresis, and transferred to a polyvinylidene difluoride (PVDF) membrane. The membrane was blocked with a solution containing 5%-TBST (tris-buffered saline with Tween20) milk, and the primary antibody was exposed at 4 degrees Celsius for 16 hours.
The antibodies used were as follows: β-actin (sc-477778), p53 (sc-126), Bax (sc-526) (Santacruz Biotechnology); cleaved caspase-7 (Asp198) (#9491), cleaved poly (ADP-ribose) polymerase (PARP) (#9541), X chromosome-linked inhibitor of apoptosis (XIAP) (#2045), Survivin (#2808), p21 (#2947), phospho-Akt (#9275), cleaved caspase-9 (#9501), caspase-9 (#9502), caspas-8 (#9746), phospho-Stat3 (#9145) (Cell Signaling Technology). […]

[6] = system: NCI-H460 tumorspheroids; test: LIVE/DEAD cell death staining of tumorspheroids; assay type: cell-based; conditions: NCI-H460 tumorspheroids, 1,3,5 uM IHT, 72 hours
Protocol: (§4) After the IHT was treated with NCI-H460 and A549 tumorspheroids for 72 hours, the cell death was observed using LIVE/DEAD Viability/Cytotoxicity Kit (Thermo Scientific). Live cells were stained with green fluorescence-labeled calcein-AM, dead cells were stained with red fluorescence-labeled ethidium homodimer-1 (EthD-1), and images were taken at 100× magnification using the Operetta High Content Screening (HCS) System.

[7] = system: A549 tumorspheroids; test: LIVE/DEAD cell death staining of tumorspheroids; assay type: cell-based; conditions: 72 hours
Protocol: as §2, §4

[8] = system: A549 tumorspheroids; test: Apoptosis by Cell Death detection ELISA kit; assay type: cell-based; conditions: 72 hours
Protocol: (§5) An experiment was designed to confirm whether cell death induced in 3D tumorspheroids was apoptosis. Induction of apoptosis was examined after treating NCI-H460 tumorspheroids with IHT or treating A549 tumorspheroids with IHT along with siNC or siNR4A1. NCI-H460 and siRNA-treated A549 tumorspheroids were treated with IHT at the indicated concentrations for 72 hours, and then apoptosis was measured using a Cell Death detection ELISA kit. Further, after IHT treatment for 72 hours, single cells were isolated from tumorspheroids, stained with Annexin V and 7-AAD, and analyzed by a flow cytometry. Apoptotic cell population was represented as the ratio of cells in the early apoptotic processes that are annexin V-positive/7-AAD-negative, and terminal apoptotic process positive for both annexin V/7-AAD (FIG. 5). All data are expressed as mean±standard deviation. *p<0.05 indicates a significant difference compared to a control group, and **p<0.01 indicates a significant difference compared to a control group.

[9] = system: NCI-H460 tumorspheroids; test: Apoptosis by Cell Death detection ELISA kit; assay type: cell-based; conditions: 72 hours
Protocol: as §5

[10] = system: A549 tumorspheroids; test: Annexin V / 7-AAD flow cytometry; assay type: cell-based; conditions: 72 hours
Protocol: as §5
Further, using the phenomenon that annexin V was exposed to the outside of the cell membrane in the early stage of apoptosis, cells were stained with annexin V, stained with 7-Amino-Actinomycin D (7-AAD) penetrating into dead cells, and analyzed with a flow cytometry, thus showing apoptosis and cell death.

[11] = system: A549 tumorspheroids; test: Mitochondrial membrane potential (JC-1, flow cytometry); assay type: cell-based; conditions: IHT 1 uM and siNR4A1 simultaneously, 48 hours
Protocol: (§6) In the induction of apoptosis by the intrinsic pathway, a decisive process is the release of cytochrome C inside mitochondria to the outside due to changes in mitochondrial membrane potential. After 48 hours of treatment to measure mitochondrial membrane potential changes, tumorspheroids were isolated into single cells and stained with JC-1, and flow cytometry was used to measure the percentage of mitochondria-damaged cells. The percentage of cells in which JC-lexists as a single entity, meaning a decrease in mitochondrial membrane potential, was indicated. In addition, A549 tumorspheroids transfected with negative control (siNC) or siNR4A1 and NCI-H460 tumorspheroids were treated with IHT for 48 hours, and then subjected to Western blot analysis for apoptosis-related protein changes, and the results are shown in FIG. 6.

[12] = system: NCI-H460 tumorspheroids; test: as above; assay type: cell-based; conditions: 3 uM IHT, 48 hours
Protocol: as §6

[13] = system: A549 tumorspheroids; test: Western blot of apoptosis-related proteins; assay type: cell-based
Protocol: as §3
(§7) The antibodies used were as follows: β-actin (sc-477778), p53 (sc-126), Bax (sc-526) (Santacruz Biotechnology); cleaved caspase-7 (Asp198) (#9491), cleaved poly (ADP-ribose) polymerase (PARP) (#9541), X chromosome-linked inhibitor of apoptosis (XIAP) (#2045), Survivin (#2808), p21 (#2947), phospho-Akt (#9275), cleaved caspase-9 (#9501), caspase-9 (#9502), caspas-8 (#9746), phospho-Stat3 (#9145) (Cell Signaling Technology).
(§8) Subsequently, the membrane was washed with TBSP, and then exposed to the secondary antibody conjugated with HRP (horseradish peroxidase, Santacruz Biotechnology) at room temperature for 1 hour, washed, and film-developed using an ECL (enhanced chemiluminescence, Amersham) kit to observe the bands.
as §6

[14] = system: NCI-H460 tumorspheroids; test: Western blot of apoptosis-related proteins; assay type: cell-based
Protocol: as §3, §7, §8, §6

[15] = system: C. elegans jgIs25 (EGFR T790M-L858R); test: Multivulva (Muv) formation in C. elegans with EGFR double mutation; assay type: in vivo
From the text: In non-small cell lung cancer patients with EGFR (epidermal growth factor receptor) exon21 mutation (L858R), the therapeutic effect of EGFR-TKI (tyrosine kinase inhibitor) is excellent. However, tolerance develops quickly, one mechanism of which is because the second mutation (L858R, T790M) occurs in EGFR. C. elegans with EGFR double mutation (L858R, T790M) causes cell proliferation (multivulva formation). It was observed whether cell proliferation could be inhibited upon IHT treatment. This is an in vivo system that can predict the therapeutic effect of lung cancer resistant to EGFR-TKIs, by introducing genetic mutations observed in cells showing drug resistance to the EGFR-TKI (tyrosine kinase inhibitor) used as a therapeutic agent for human lung cancer.
After IHT treatment to C. elegans jgIs25, observations were performed using a differential interference contrast (DIC) microscope. 0.5% DMSO was used as a vehicle control. […] 0.1% DMSO as a control or 5 μM IHT was. Data are expressed as mean±standard error, **P<0.01 and ***P<0.001.

[16] = system: A549 xenograft tumors; test: A549 xenograft tumor growth; assay type: in vivo; conditions: athymic nude mice, intratumoral IHT 20 μg/kg (500 ng) twice a week with siNR4A1 once a week, 4 weeks
Protocol: Further, A549 cells (5×10^6) were inoculated into the dorsal side of athymic nude mice, and when the tumor size reached 100-150 mm^3, siRNA (50 pmoles) and IHT (500 ng) were intratumorally administered once a week and twice a week, respectively, for 4 weeks. The tumor size was monitored twice a week, and tumor volume was calculated by the following Equation 3. […] V(mm^3)=length×width×width/2 [Equation 3]

[17] = system: A549 tumorspheroids; test: Combined treatment of cisplatin and IHT, tumorspheroid cell growth; assay type: cell-based
Protocol: A549 tumorspheroids were grown for 3 days, then subjected to the combined treatment of cisplatin and IHT at the indicated concentrations.

[18] = A549 tumorspheroids with inhibition of NR4A1 expression (siNR4A1), IHT 1 uM

Compound: COC(=O)[C@@H](O)[C@](O)(CCC(C)C)C(=O)O[C@@H]1C(OC)=C[C@]23CCCN2CCc2cc4c(cc2C13)OCO4 (stereo partly shown) [IHT, isoharringtonine]
- growth inhibition of tumorspheroids [1, 18]: rapid growth-inhibitory effect
- growth inhibition of tumorspheroids ([1]; A549 tumorspheroids, IHT alone (siNC), 48 and 72 hours): did not have a significant growth-inhibitory effect
- EC50 ([1]; Homo sapiens, A549 3D tumorspheroid, 72 hours, ED50 'predicted'): 9600 ± 1120 nM
- EC50 ([2]; Homo sapiens, 3D tumorspheroid of NCI-H460, 72 hours, read-out: average effective amount (ED50), tumorspheroid growth): 143 ± 40 nM
- growth inhibition of tumorspheroids ([2]; NCI-H460 tumorspheroids, 1,3,5 uM IHT, 48 and 72 hours): effectively induced at all concentrations
- EC50 [3]: 481 ± 50 nM
- EC50 [4]: 94 ± 20 nM
- change in p21 protein [5]: increased p21
- cell death of tumorspheroids [6]: effectively induced at all concentrations
- cell death of tumorspheroids [7, 18]: sharply induced cell death
- cell death of tumorspheroids ([7]; A549 tumorspheroids, IHT alone): did not induce cell death
- apoptosis (DNA fragments, ELISA) ([8]; IHT alone): apoptosis was not induced
- apoptosis (DNA fragments, ELISA) ([8]; simultaneous treatment with siNR4A1, IHT 1 uM): sharply increased apoptosis
- apoptosis (DNA fragments, ELISA) [9]: increased from 1 uM in a dose-dependent manner
- apoptosis (annexin V/7-AAD) ([10]; IHT alone): did not induce apoptosis
- apoptosis (annexin V/7-AAD) ([10]; simultaneous treatment with siNR4A1, IHT 1 μM): sharply increased apoptosis
- mitochondrial membrane potential [11]: induced a decrease in mitochondrial membrane potential
- mitochondrial membrane potential [12]: changes in mitochondrial membrane potential were induced
- cleavage of caspase-9 ([13]; IHT+siNR4A1, 48 hours): induced the cleavage of caspoase-9
- Mcl-1 and XIAP protein ([13]; both IHT and siNR4A1, 48 hours): induced a reduction of Mcl-1 and XIAP
- phospho-Akt ([13]; both IHT and siNR4A1, 48 hours): reduction of phospho-Akt
- Bcl-2 and Mcl-1 protein ([14]; 48 hours): induces the reduction of Bcl-2 and Mcl-1
- Survivin and XIAP protein ([14]; 48 hours): induces the decrease of Survivin and XIAP
- p53 protein ([14]; 48 hours): induces an increase in p53
- phospho-Akt ([14]; 48 hours): reduction of phospho-Akt
- cleavage of caspase-9 ([14]; IHT 48 hours): induced the cleavage of caspoase-9
- multivulva formation ([15]; C. elegans jgIs25, high concentrations of IHT): multivulva formation was significantly inhibited
- multivulva formation ([15]; C. elegans jgIs25, low IHT concentration (5 μM) with sinhr-6 (nhr-6 RNAi)): multivulva formation was significantly inhibited
- multivulva formation ([15]; C. elegans jgIs25, low concentration (5 uM) IHT): multivulva formation was not inhibited
- xenograft tumor suppression (tumor volume) [16]: tumor suppressive effects were observed
- cell growth inhibition ([17]; A549 tumorspheroids, 10 μM IHT in combination with 10 μM cisplatin, 3 days): stronger inhibition of cell growth
- cell growth inhibition ([17]; A549 tumorspheroids, 10 μM IHT, 3 days): very effectively inhibited
- inhibition at 1 µM ([17]; Homo sapiens, A549, 72 h, read-out: cell growth inhibition): ~48%

Compound: N.N.[Cl][Pt][Cl] [cisplatin, reference compound]
- inhibition of tumorspheroid growth ([17]; A549 tumorspheroids, 30 μM cisplatin alone, 3 days): significant but minute inhibition of growth
